Earlier results, collected in patent EP1239029B1, “Cleaning compositions” (UNILEVER PLC, priority 2001, dated 2002).
Where two headings read alike, the source gives them in different places.

[1] = other common materials, by contrast, at 20°C

Row | Water Solubility (g/100g) (highly water-soluble materials, grams of solid to form a saturated solution in 100 grams of water at 20°C) | SMILES | Water Solubility (g/100g) [1] [g/100g]
1 |  | O=P(O)(O)OP(=O)(O)OP(=O)(O)O [Sodium tripolyphosphate anhydrous] | 15
2 |  | O=BO[O-].[Na+] [Sodium perborate anhydrous] | 3.7
3 | >100 | NC(N)=O [Urea] | 
